Measurements taken from patent publication US11419902B2, “Compositions comprising bacterial strains” (4D Pharma Research Limited, priority 2018, dated 2022).

Columns and labels:
[1] = test system: PBMCs; assay: Basic cell phenotyping on PBMCs from healthy donors (flow cytometry); format: cell-based
Experimental: Frozen healthy human PBMCs were purchased from Stem Cells Technologies (Cambridge UK). Briefly cells were thaw and left to rest overnight in full growth media (RPMI 1640 with 10% FBS, 2 mM L. Glutamine, 55 μM 2-Mercapoethanol and 100 U/ml penicillin, 100 μg/ml streptomycin) in CO2 incubator at 37° C. For the experiment cells were plated at a density of 750,000 Cell/well in 48 well plates and treated in full growth media with 10% bacteria supernatants in the presence or absence of 1 ng/ml LPS. Cell culture media was added to untreated wells. Cells were left to rest for 72 h, thereafter cell free supernatants were collected and spun down for 3 minutes at 10,000 g at 4° C. Samples were stored at −80° C. for cytokine analysis.
1.5×10^6 cells per sample were stained with viability fixable dye (Miltenyi) to discriminate between live and dead cells for 10 min at RT. Afterwards the cells were stained with the cocktail of antibodies listed below (Miltenyi) for basic immunophenotyping (CD3/CD4/CD8/CD25/CD127 and CD19) and incubated for 10 min at RT.
Experiments were carried out to measure the percentage of the following cell populations: • CD4+CD3+ cells (markers of CD4 T-helper cells) • CD4+CD25+ cells (markers of CD4+ activated cells) • CD25++[…] cells out of the CD4+ cell population (markers of Tregs cells) • CD8+CD3+ cells (markers of cytotoxic T cells) • CD25+CD8+ cells (markers of CD8+ activated cells) • CD19+CD3− cells (markers of B cells).
The ratio of CD8+/Tregs and the ratio of activated CD8/Treg cells were determined.
Flow cytometry analysis of different cell populations 1.5×10^6 cells per sample were stained with viability fixable dye (Miltenyi) to discriminate between live and dead cells for 10 min at RT. Afterwards the cells were stained with the cocktail of antibodies listed below (Miltenyi) for basic immunophenotyping (CD3/CD4/CD8/CD25/CD127 and CD19) and incubated for 10 min at RT. Cells were then washed and resuspended in PBS and immediately analysed using a FACS Aria II equipped with Blue (488 nm), Red (633 nm) and Violet (405 nm) lasers. FMOs were included throughout all the experiments. For the analysis Flowjo version 10.4.2 software (FlowJo, LLC) was used.

[2] = test system: IL-8; assay: IL-8 secretion in MG U373 cells (ELISA); format: cell-based, human; conditions: 10% bacteria supernatant 24 h, independently of the presence of LPS (1 ug/mL)
Experimental: MG U373 is a human glioblastoma astrocytoma derived from a malignant tumour and were purchased from Sigma-Aldrich (cat n. 08061901-1VL). MG U373 human glioblastoma astrocytoma cells were grown in MEM (Sigma Aldrich, cat n. M-2279) supplemented with 10% FBS, 1% Pen Strep, 4 mM L-Glut, 1×MEM Non-essential Amino Acid solution and 1× Sodium Piruvate.
Once grown the MG U373 cells were plated on 24-well plate at 100,000 cells/well. The cells were treated with LPS (1 ug/mL) alone or with 10% of bacteria supernatant from MRx0029 for 24 h. LPS is a known stimulator of proinflammatory cytokines such as IL-8. Afterwards the cell free supernatants were collected, centrifuged at 10,000 g for 3 min at 4° C. IL-8 was measured using Human IL-8 ELISA Kit from Peprotech (cat n. #900-K18) according to manufacturer instruction.

[3] = target: T1, HDAC1 (Homo sapiens, UniProt Q13547); assay: Specific HDAC activity analysis (fluorogenic assay kit); format: biochemical; conditions: cell free supernatant diluted 1 in 10
T1 construct: purchased BPS Bioscience, CA
Experimental: (§1) Specific HDAC inhibition activity was analysed for HDAC1, 2, 3, 4, 5, 6, 9 using fluorogenic assay kits for each type of HDAC (BPS Bioscience, CA). Assays were conducted according to manufacturer's instructions and each sample were performed in replicates. Cell free supernatants were diluted 1 in 10 and exposed to specific HDAC proteins provided in the kit to maintain consistency between methods.
(§2) The specific HDAC inhibition profile of the test bacteria strain was investigated. Specific HDAC inhibition assays (BPS Bioscience, CA) were carried out for Class I and Class II HDACs. The ability of the bacterial strain to inhibit HDAC enzymes was compared to butyrate, hexanoic and valeric acid.

[4] = target: T2, HDAC2 (Homo sapiens, UniProt Q92769); assay: as above; format: biochemical; conditions: cell free supernatant diluted 1 in 10
T2 construct: purchased BPS Bioscience, CA
Experimental: as §1, §2

[5] = target: T3, HDAC3 (Homo sapiens, UniProt O15379); assay: as above; format: biochemical; conditions: cell free supernatant diluted 1 in 10
T3 construct: purchased BPS Bioscience, CA
Experimental: as §1, §2

[6] = test system: class II HDACs; assay: as above; format: biochemical; conditions: data not shown
Experimental: as §1, §2

[7] = test system: Occludin, Villin, TJP1 and TJP2; assay: Tight junction protein gene expression in HT29-mtx cells (qRT-PCR); format: cell-based; conditions: 2 h incubation
Excerpt: The ability of MRx0029 to cause any intestinal barrier dysfunction was investigated. HT29-mtx epithelial, mucin-producing cell monolayers were used as an in vitro model to evaluate gut barrier disruption and immune stimulation following treatment with MRx0029.
Total RNA was extracted using the RNeasy mini kit (Qiagen, Manchester, JUK) according to the manufacturer's instructions, and the RNA concentration determined by absorbance at 260/280 nm using a spectrophotometer (nano-Drop ND-1000; Thermo Scientific, Wilmington, Del.). For mRNA expression analysis, cDNA was prepared from total RNA using the High-Capacity cDNA reverse transcription kit (Applied Biosystems, UK) according to the manufacturer's instructions. The reverse transcription reactions were performed in a Thermo cycler (Biometra, Germany) at 25° C. for 10 min, 37° C. for 120 min, and 85° C. for 5 min, hold on at 4° C. Resulting cDNA was amplified in duplicates by the SYBR-Green PCR assay, and products were detected on QuantStudio 6 flex real-time PCR machine (Applied Biosystems, UK) using a standardised profile (initial denaturation of 95° C. for 10 minutes, followed by 40 cycles of 15 seconds of denaturation at 95° C. and 60 seconds of annealing/extension at 60/65° C., depending on the primers. A dissociation stage was added after the 40 cycles to generate a melting curve. Analysis was performed using the Applied Biosystems QuantStudio Real-Time PCR Software v1.2.
RNA was isolated and Quantitative RT-PCR (qRT-PCR) analysis was performed to characterize the changes in gene expression of tight junction proteins during incubation with MRx0029. The administration of MRx0029 enhanced Occludin, Villin, Tight Junction Protein 1 and 2 (respectively TJP1 and TJP2) mRNA expression after 2 h incubation (FIG. 14B).

[8] = test system: IL-6; assay: IL-6 secretion by astrocytoma cell line U373 (ELISA); format: cell-based, Human; conditions: U373 cells, 100 μl bacteria supernatant, 24 h, vs untreated and YCFA+ controls

T3 sequence (O15379 whole entry): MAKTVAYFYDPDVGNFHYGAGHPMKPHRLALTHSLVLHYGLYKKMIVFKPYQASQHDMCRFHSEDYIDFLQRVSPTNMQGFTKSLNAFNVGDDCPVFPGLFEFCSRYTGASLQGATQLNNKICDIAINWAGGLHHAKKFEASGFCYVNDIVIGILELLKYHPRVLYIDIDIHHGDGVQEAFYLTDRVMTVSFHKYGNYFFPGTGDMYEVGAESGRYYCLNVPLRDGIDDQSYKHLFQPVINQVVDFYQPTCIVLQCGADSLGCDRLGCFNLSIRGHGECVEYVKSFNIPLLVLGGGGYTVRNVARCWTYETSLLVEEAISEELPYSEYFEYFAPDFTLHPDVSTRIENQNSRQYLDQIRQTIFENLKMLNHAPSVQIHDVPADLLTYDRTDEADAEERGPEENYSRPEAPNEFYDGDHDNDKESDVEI
T3 sequence (Q9Y618 395-489 partner limits assumed): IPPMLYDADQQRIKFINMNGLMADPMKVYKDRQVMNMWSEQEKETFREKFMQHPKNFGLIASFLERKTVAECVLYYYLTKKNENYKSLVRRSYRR
T1 sequence (Q13547 whole entry): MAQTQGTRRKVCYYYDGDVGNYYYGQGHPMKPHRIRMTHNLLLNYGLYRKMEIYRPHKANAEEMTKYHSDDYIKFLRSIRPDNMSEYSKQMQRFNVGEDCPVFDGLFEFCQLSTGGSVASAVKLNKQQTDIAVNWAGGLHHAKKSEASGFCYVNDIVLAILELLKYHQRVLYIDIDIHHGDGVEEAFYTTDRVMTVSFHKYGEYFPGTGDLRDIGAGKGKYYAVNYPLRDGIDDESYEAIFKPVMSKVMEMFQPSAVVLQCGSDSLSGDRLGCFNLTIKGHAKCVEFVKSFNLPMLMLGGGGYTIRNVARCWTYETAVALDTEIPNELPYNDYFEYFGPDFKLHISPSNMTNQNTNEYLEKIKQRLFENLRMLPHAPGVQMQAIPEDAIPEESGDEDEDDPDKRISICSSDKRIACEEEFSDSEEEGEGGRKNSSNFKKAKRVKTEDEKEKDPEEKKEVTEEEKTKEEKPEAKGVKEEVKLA
T2 sequence (Q92769 whole entry): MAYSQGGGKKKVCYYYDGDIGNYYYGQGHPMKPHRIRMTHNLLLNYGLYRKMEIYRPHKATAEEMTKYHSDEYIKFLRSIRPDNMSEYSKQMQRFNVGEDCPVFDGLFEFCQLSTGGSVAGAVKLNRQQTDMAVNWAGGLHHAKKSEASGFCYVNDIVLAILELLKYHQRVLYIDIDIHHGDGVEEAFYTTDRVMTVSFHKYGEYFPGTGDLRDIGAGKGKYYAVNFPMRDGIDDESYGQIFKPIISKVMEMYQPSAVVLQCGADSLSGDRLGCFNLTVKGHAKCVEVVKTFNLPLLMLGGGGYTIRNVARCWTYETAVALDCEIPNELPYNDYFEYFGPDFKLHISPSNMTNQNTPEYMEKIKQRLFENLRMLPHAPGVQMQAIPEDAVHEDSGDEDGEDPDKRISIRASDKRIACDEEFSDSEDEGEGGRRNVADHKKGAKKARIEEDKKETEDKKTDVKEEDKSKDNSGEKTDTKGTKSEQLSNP

Substance: Megasphaera massiliensis MRx0029
- percentage of B cells ([1]; 10% bacteria supernatant, 72 h): did not significantly change
- percentage of CD4+ activated cells ([1]; 10% bacteria supernatant, 72 h): did not significantly change
- percentage of CD4 T-helper cells ([1]; 10% bacteria supernatant, 72 h): did not significantly change
- percentage of CD8+ activated cells ([1]; 10% bacteria supernatant, 72 h): did not significantly change
- percentage of CD25++CD17− cells (Tregs) ([1]; 10% bacteria supernatant, 72 h): selectively reduced the percentage of Tregs
- percentage of cytotoxic T cells ([1]; 10% bacteria supernatant, 72 h): did not significantly change
- ratio of CD8+/Tregs ([1]; vs untreated cells): increased the ratio of CD8+/Tregs
- ratio of activated CD8/Treg cells ([1]; vs untreated cells): increased
- IL-8 secretion [2]: Increases IL-8 Secretion
- inhibition of HDAC1 [3]: very potent inhibitor
- inhibition of HDAC2 [4]: very potent inhibitor
- inhibition of HDAC3 [5]: very potent inhibitor
- inhibition of class II HDACs [6]: not as significant
- Occludin mRNA expression [7]: enhanced
- TJP1 mRNA expression [7]: enhanced
- TJP2 mRNA expression [7]: enhanced
- Villin mRNA expression [7]: enhanced
- IL-6 secretion [8]: upregulates IL-6 secretion
